Assays:
GnT-IVa lectin domain = target: T1, GnT-IVa lectin domain (Mus musculus, UniProt Q812G0); assay: 1H-15N HSQC NMR titration (peak A); format: binding; conditions: 20 mM sodium phosphate pH 6.0, 298 K, 0.4 mM protein; read-out: dissociation constant
T1 construct: gene Mgat4a; C-terminal lectin domain, residues 382-526, expressed in E. coli BL21(DE3) RIPL as GST fusion (pGEX6P-1), GST cleaved by PreScission protease; 15N-labelled for NMR
T1 sequence (Q812G0 382-526 isoform Q812G0-2): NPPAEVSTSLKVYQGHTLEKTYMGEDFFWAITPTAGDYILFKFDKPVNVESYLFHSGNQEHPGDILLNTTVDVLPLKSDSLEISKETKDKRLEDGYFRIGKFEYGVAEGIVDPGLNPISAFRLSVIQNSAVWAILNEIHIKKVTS

[1] = target: T2, soluble wild-type GnT-IVa enzyme (Mus musculus, UniProt Q812G0); assay: HPLC assay of PA-labelled product; format: biochemical; conditions: 10 mM MnCl2, 125 mM MES pH 6.25, 200 mM GlcNAc, 37 °C
T2 construct: gene Mgat4a; luminal region, residues 60-526 (catalytic plus lectin domain), N-terminal His tag, secreted from COS7 cells (pcDNA-IH), Ni2+ column purified from medium
T2 sequence (Q812G0 60-526 isoform Q812G0-2 D445A): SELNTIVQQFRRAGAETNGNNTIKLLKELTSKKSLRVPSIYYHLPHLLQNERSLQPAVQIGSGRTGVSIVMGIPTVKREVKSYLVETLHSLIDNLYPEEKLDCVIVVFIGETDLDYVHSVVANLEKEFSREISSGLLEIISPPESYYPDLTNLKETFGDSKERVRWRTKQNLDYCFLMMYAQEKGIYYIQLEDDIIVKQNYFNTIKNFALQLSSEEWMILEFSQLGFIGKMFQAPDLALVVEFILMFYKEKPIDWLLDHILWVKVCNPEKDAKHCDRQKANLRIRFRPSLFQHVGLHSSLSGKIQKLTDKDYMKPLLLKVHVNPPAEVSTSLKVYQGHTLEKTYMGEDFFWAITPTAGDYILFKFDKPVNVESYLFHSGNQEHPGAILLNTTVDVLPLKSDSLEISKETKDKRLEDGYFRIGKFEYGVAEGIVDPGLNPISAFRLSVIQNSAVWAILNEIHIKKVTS

| Kd (GnT-IVa lectin domain) | Compound | also measured |
| --- | --- | --- |
| 320 µM | CC(=O)N[C@H]1[C@H](O[C@@H]2C(O)O[C@H](CO)[C@@H](O)[C@@H]2O)O[C@H](CO)[C@@H](O)[C@@H]1O (stereo partly shown) [GlcNAcβ1-2Man] |  |
|  | CC(=O)N[C@H]1[C@@H](OP(=O)(O)OP(=O)(O)OC[C@H]2O[C@@H](n3ccc(=O)[nH]c3=O)[C@H](O)[C@@H]2O)O[C@H](CO)[C@@H](O)[C@@H]1O [UDP-GlcNAc] | Km ([1]; 10 μM GnGnbi-PA, 0.625-20 mM UDP-GlcNAc): 3950 µM |
| 3100 µM | CC(=O)N[C@H]1C(O)O[C@H](CO)[C@@H](O)[C@@H]1O (stereo partly shown) [GlcNAc] |  |
|  | CC(=O)N[C@H]1[C@H](O[C@@H]([C@H](O)[C@H](CNc2ccccn2)NC(C)=O)[C@H](O)CO)O[C@H](CO)[C@@H](O[C@@H]2O[C@H](CO[C@H]3O[C@H](CO)[C@@H](O)[C@H](O)[C@@H]3O[C@@H]3O[C@H](CO)[C@@H](O)[C@H](O)[C@H]3NC(C)=O)[C@@H](O)[C@H](O[C@H]3O[C@H](CO)[C@@H](O)[C@H](O)[C@@H]3O[C@@H]3O[C@H](CO)[C@@H](O)[C@H](O)[C@H]3NC(C)=O)[C@@H]2O)[C@@H]1O [GnGnbi-PA] | Km ([1]; 20 mM UDP-GlcNAc, 32-640 μM acceptor, labelled compound): 1250 µM |

— PMC9296478, “Discovery of a lectin domain that regulates enzyme activity in mouse N-acetylglucosaminyltransferase-IVa (MGAT4A)” (Communications Biology, 2022)
